Test results as given in patent US10329336B2, “Antimicrobial kinocidin compositions and methods of use” (LA Biomedical Research Institute at Harbor-UCLA Medical …, priority 2006, dated 2019).
“Also recorded” adds a separate entry of the source.

What was measured:
[1] = test system: S. aureus ATCC 27217; experiment: Solution-phase microbicidal assay; format: cell-based, Staphylococcus aureus; conditions: for microbicidal activity: solution-phase, pH 5.5 and 7.5, 1 hour
Description: (§1) One million CFU of the indicated microorganism per milliliter were incubated with peptide (0.00125-20.0 nmol/ml) in either MES (2.0 mM, pH 5.5) or PIPES (10.0 mM, pH 7.5) for one hour at 37° C. Surviving CFU were enumerated and are described as change in the initial log 10 CFU. ∘, S. aureus ATCC 27217; ●, S. typhimurium strain 5990s; □, C. albicans ATCC 36082. Data are means±SD (minimum n=2).
(§2) Briefly, the antimicrobial assays were performed against a panel of prototype human pathogens as previously detailed (Yoshimura, T., Matsushima, K., Tanaka, S., Robinson, E. A., Appella, E., Oppenheim, J. J. & Leonard, E. J. (1987) Proc Natl Acad Sci USA 84, 9233-7): Staphylococcus aureus (ATCC 27217; Gram-positive bacterium); Salmonella typhimurium (5996s; Gram-negative bacterium); and the fungus Candida albicans (ATCC 36082). Defensin HNP-1 was included in each assay as an internal control, and all assays were conducted a minimum of two independent times. Results of independent assays were analyzed using Wilcoxon Rank Sum analysis with Bonferroni correction for multiple comparisons.
(§3) To characterize IL-8's antimicrobial activity in more detail, a quantitative solution-phase assay was carried out at pH 5.5 and 7.5. Organisms were prepared and adjusted to 10^6 CFU/ml in PIPES or MES buffer as above but lacking agarose, and dispensed (5×10^4 CFU per 50 μl aliquot). Peptide (concentration range, 20-0.00125 nmol/ml) was introduced into the assay medium, and incubated for 1 hour at 37° C. After incubation, media were serially diluted and plated in triplicate for enumeration. […] IL-8 was also fungicidal for C. albicans at pH 7.5, with a 2-log reduction in surviving CFU over 1 hour at a concentration of 2.5 nmol/ml.

[2] = test system: S. typhimurium; experiment: Solution-phase microbicidal assay; format: cell-based, Salmonella typhimurium; conditions: for microbicidal activity: solution-phase, pH 5.5 and 7.5, 1 hour
Description: as §1, §2, §3

[3] = test system: C. albicans ATCC 36082; experiment: Solution-phase microbicidal assay; format: cell-based, Candida albicans; conditions: C. albicans; for microbicidal (fungicidal) activity: solution-phase, pH 5.5 and 7.5, 1 hour
Description: as §1, §2, §3

[4] = test system: Salmonella typhimurium (5996s); experiment: Solid-phase antimicrobial assay of kinocidins; format: cell-based; conditions: S. typhimurium (Gram-negative); pH 5.5 or 7.5, not separated; 0.5 nmol/well
Description: (§4) Peptides (0.5 nmol) were introduced into wells in agarose plates buffered with MES (2.0 mM, pH 5.5) or PIPES (10.0 mM, pH 7.5). Antimicrobial activity was assessed as the zone of complete (blue) or partial (red) inhibition around the well. Abbreviations are: Native IL-8 (IL-8); IL-8α, (α); IL-8γ, (γ); IL-8α+IL-8γ (α+γ); RANTES, (RAN); GRO-α, (GRO); MCP-1, (MCP); lymphotactin, (LYM); platelet factor-4, (PF-4); and HNP-1, (HNP). Histograms are means±SEM (minimum n=2).
as §2
(§5) For the Solid-Phase Assay, mid-logarithmic phase organisms were prepared, introduced into buffered agarose (PIPES [10 mM, pH 7.5] or MES [2.0 mM, pH 5.5]) to achieve final inocula of 10^6 CFU/ml, and poured into plates. Peptides (0.5 nmol/well [50 nmol/ml]) were added to wells in the seeded matrix, and incubated for 3h at 37° C. Nutrient overlay medium was applied, and assays incubated at 37° C. or 30° C. for bacteria or fungi, respectively. After 24h, zones of inhibition were measured, and results recorded as zones of complete or partial inhibition.

[5] = test system: Staphylococcus aureus (ATCC 27217); experiment: Solid-phase antimicrobial assay of kinocidins; format: cell-based; conditions: 0.5 nmol/well
Description: as §4, §2, §5

[6] = test system: Candida albicans (ATCC 36082); experiment: Solid-phase antimicrobial assay of kinocidins; format: cell-based; conditions: C. albicans, 0.5 nmol/well
Description: as §4, §2, §5

[7] = test system: Candida albicans (ATCC 36082); experiment: Solid-phase radial diffusion assay (signature model validation), fungus; format: cell-based; conditions: C. albicans, pH 5.5 or pH 7.5, after 24h
Description: (§6) Standard radial diffusion assays were conducted using 10 μg of specified peptide: defensin HNP-1 (HNP); brazzein (BRZ); charybdotoxin (CTX); or metallothionein II (MTL). Recombinant brazzein reflecting the published 3-dimensional structure (1BRZ) as determined by nuclear magnetic resonance spectroscopy was kindly provided by Drs. J. L. Markley and F. M. Assadi-Porter, the University of Wisconsin 25. Charybdotoxin, metallothionein II, and defensin HNP-1 were obtained from commercial sources. Antimicrobial activity was assessed using a well-established solid-phase diffusion method as described by Tang et al., Infect. Immun. 70: 6524-6533 (2002). Assays included well characterized organisms: Staphylococcus aureus (ATCC 27217, Gram-positive coccus); Bacillus subtilis (ATCC 6633, Gram-positive bacillus); Escherichia coli (strain ML-35, Gram-negative bacillus); and Candida albicans (ATCC 36082, fungus). In brief, organisms were cultured to logarithmic phase and inoculated (10^6 colony forming units/ml) into buffered molecular-biology grade agarose at the indicated pH. Peptides resuspended in sterile deionized water were introduced into wells formed in the underlay, and incubated for 3h at 37° C. Nutrient-containing overlay medium was then applied, and assays incubated at 37° C. or 30° C. for bacteria or fungi, respectively. After 24h, zones of complete or partial inhibition were measured. All assays were repeated independently a minimum of two times at pH 5.5 (panels A-D) or pH 7.5 (panels E-H) to assess the influences of pH on peptide antimicrobial activities versus microorganisms. Histograms express mean (±standard deviation) zones of complete (blue) or incomplete (yellow) inhibition of growth. […] Note differences in scale.
(§7) These peptides were tested for antimicrobial activity against a panel of Gram-positive (Staphylococcus aureus. Bacillus subtilis) and Gram-negative (Escherichia coli) bacteria, and the fungus Candida albicans, using a well-established and sensitive in vitro assay [Antimicrobial activity was assessed using a well-established solid-phase diffusion method. Assays included well-characterized organisms: Staphylococcus aureus (ATCC 27217, Gram-positive); Bacillus subtilis (ATCC 6633, Gram-positive); Escherichia coli (strain ML-35, Gram-negative); and Candida albicans (ATCC 36082, fungus). In brief, organisms were cultured to logarithmic phase and inoculated at a density of 10^6 colony forming units/ml in buffered molecular grade agarose at the indicated pH. […] of peptide resuspended in sterile deionized water were introduced into wells formed in the underlay, and incubated for 3h at 37° C. […] After 24h, zones of complete or partial inhibition were measured. […]

[8] = test system: Staphylococcus aureus (ATCC 27217), Bacillus subtilis (ATCC 6633), Escherichia coli (strain ML-35); experiment: Solid-phase radial diffusion assay (signature model validation), bacteria panel; format: cell-based; conditions: pH 5.5 or pH 7.5, after 24h
Description: as §6, §7

[9] = S. aureus (Gram-positive), pH 5.5 or 7.5, not separated

In the case of “ANTEIIVKLSDGRELCLDP [IL-8γ, synthetic γ-core domain of IL-8]”, the microbicidal activity [1] is reported as “no measurable activity”, the microbicidal activity [2] is reported as “no measurable activity” and the “microbicidal (fungicidal) activity” value [3] is reported as “no measurable activity”. The “antimicrobial activity (zone of inhibition)” value [4] was “no detectable antimicrobial efficacy”, the “antimicrobial activity (zone of inhibition)” value [5, 9] was “no detectable antimicrobial efficacy” and the “antifungal activity (zone of inhibition)” value ([6]; pH 5.5 or 7.5, not separated) was “no detectable antimicrobial efficacy”.

With “IL-8: recombinant human chemokine interleukin-8, obtained commercially” the “activity in solution phase” value ([1]; pH 7.5) was “lacks activity”, the microbicidal activity [1] was “did not exert microbicidal activity” and the “activity in solution phase” value ([2]; pH 7.5) was “lacks activity”. The microbicidal activity [2] was “did not exert microbicidal activity”, the “reduction in surviving CFU” value ([3]; pH 7.5, 2.5 nmol/ml, over 1 hour) was 2 log and the “microbicidal (fungicidal) activity” value [3] was “highly fungicidal”. The “antimicrobial activity (zone of inhibition)” value [4] was “equivalent to lymphotactin, but more efficacious than any other test kinocidin”, the “antimicrobial activity (zone of inhibition)” value ([5]; S. aureus, pH 5.5) was “modest activity” and the “antifungal activity (zone of inhibition)” value ([6]; pH 5.5) was “greater than any other kinocidin”. The “antifungal activity (zone of inhibition)” value ([6]; pH 5.5 or 7.5, not separated) was “striking antifungal activity” and the “antifungal activity (zone of inhibition)” value ([6]; pH 7.5) was “the only kinocidin with anti-candidal activity”.

In the case of “MCP-1: recombinant human chemokine, obtained commercially”, the “antimicrobial activity (zone of inhibition)” value [4] is reported as “significant activity”, the “antimicrobial activity (zone of inhibition)” value [5, 9] is reported as “significant activity” and the “antifungal activity (zone of inhibition)” value ([6]; pH 5.5 or 7.5, not separated) is reported as “no measurable antifungal activity”.

For “RANTES: recombinant human chemokine, obtained commercially”, the “antimicrobial activity (zone of inhibition)” value ([5]; S. aureus, pH 7.5) was “more efficacious”.

For “brazzein: recombinant sweetener protein from Pentadiplandra (1BRZ) (QDKCKKVYENYPVSKCQLANQCNYDCKLDKHARSGECFYDEKRNLQCICDYCEY; UniProt P56552 1-54, looked up)”, the “antimicrobial activity (zones of complete or partial inhibition)” value [7] was “exerted direct antimicrobial activity; also recorded: direct antimicrobial activities” and the “antimicrobial activity (zones of complete or partial inhibition)” value [8] was “exerted direct antimicrobial activity; also recorded: direct antimicrobial activities”.

For charybdotoxin, the “antimicrobial activity (zones of complete or partial inhibition)” value [7] was “exerted direct antimicrobial activity; also recorded: direct antimicrobial activities” and the “antimicrobial activity (zones of complete or partial inhibition)” value [8] was “exerted direct antimicrobial activity; also recorded: direct antimicrobial activities”.

With “metallothionein II: comparator predicted to lack antimicrobial activity, from commercial sources” the “antimicrobial activity (zones of complete or partial inhibition)” value [7] was “failed to exert antimicrobial activity”, the “antimicrobial activity (zones of complete or partial inhibition)” value ([7]; listed as Metallothionein II) was “lacked antimicrobial activity” and the “antimicrobial activity (zones of complete or partial inhibition)” value [8] was “failed to exert antimicrobial activity”. The “antimicrobial activity (zones of complete or partial inhibition)” value ([8]; listed as Metallothionein II) was “lacked antimicrobial activity”.

B1: Lymphotactin: recombinant human chemokine, obtained commercially (protein, UniProt P47992 22-114, looked up)
Lymphotactin: VGSEVSDKRTCVSLTTQRLPVSRIKTYTITEGSLRAVIFITKRGLKVCADPQATWVRDVVRSMDRKSNTRNNMIQTKPTGTQQSTNTAVTLTG
B1 was tested, and the “antimicrobial activity (zone of inhibition)” value ([5]; S. aureus, pH 7.5) was “more efficacious”.
